In patent publication US20070117849A1, “Alfavbeta3 and alfavbet6 integrin antagonists as antifibrotic agents” (priority 2003, published 2007):

Legend:
[1] = test system: secondary biliary liver fibrosis; test: Rat fibrosis model of bile duct occlusion (secondary biliary liver fibrosis); format: in vivo; conditions: after 5-6 weeks of bile duct occlusion, pilot experiments
Protocol: Animal experimentation: Male adult Wistar rats, average weight 206±19 g, underwent the following microsurgical procedure under an operating microscope (OPMI 6-S, Zeiss, Germany) (45-47): 1. midline abdominal incision following anesthesia with 100 mg/kg ketamine-hydrochloride (Ketanest®, Parke-Davis, Germany) and 10 mg/kg 5,6-dihydro-2-(2,6-xylidino)-4H-1,3-thiazine-hydrochloride (Rompun®, Bayer, Germany); 2. dissection of the common bile duct, insertion of a teflon catheter (Abbocath®-T 26 G, Venisystems, USA) and placement of a distal complete and a proximal incomplete ligature with 5-0 silk (Perma-hand®, Ethicon, Germany); 3. retrograde injection of sodium-amidotrizoate (Ethibloc®, Ethicon Germany) at a dose of […] body weight; 4. removal of the catheter, closure of the proximal ligature, scission of the bile duct between the ligatures and wound closure. After bile duct occlusion (BDO), animals received normal chow (Altromin®, Lage, Germany) and were allowed free access to water. […]
(§1) To investigate whether the […] integrin inhibitor had any effect on ECM expression in HSC/MF mRNA, expression of a spectrum of the major pro- and anti-fibrogenic molecules like procollagen α1(I) I, TGFβ1, TGFβ2, MMP-3, MMP-13, MMP-2, connective tissue growth factor (CTGF) and TIMP-1 was measured by Real-Time PCR. […]

CFSC-2G cells = test: Scratch assay (cell migration), CFSC-2G cells; format: cell-based, rat; conditions: PDGF-BB 10 ng/ml, 17-20 h
Protocol: In addition the HSC cell lines CFSC-2G (moderately activated, kind gift of Dr. M. Rojkind, Washington DC, USA) were used.
(§2) Scratch assay: Cell migration was estimated by measuring the reduction of scratch area. Cells were seeded on a 24-well plate at a density of 60,000 cells/well. After reaching confluency cells were starved in serum-free medium for 24 h before making a scratch through the cell monolayer using a sterile pipet tip. After wounding cells were pre-treated by the αvβ3-integrin inhibitor at increasing concentrations (10^−10M-10^−6M) for 30 min and then treated by PDGF-BB at a concentration of 10 ng/ml in the absence of serum. The reduction of scratch area was measured at three different points per well using a special ocular with net-micrometer after […].
(§3) All experiments were performed in cell culture with the myofibroblasts-like cell line CFSC-2G (HSC cell line derived from cirrhotic rat liver) and primary rat HSC/MF. To investigate the effect of the αvβ3 integrin inhibitor on cell migration cells were seeded on 24 well plates and after reaching confluence starved in the absence of FCS for 24 h. Scratches were done and the cells treated with PDFG-BB at 10 ng/ml in the presence or absence of the αvβ3 inhibitor at 10^−6-−10^9 M. The rate of migration was measured after 17-20 h as a reduction of initial scratch width. […]

primary rat HSC/MF = test: Scratch assay (cell migration), primary rat HSC/MF; format: cell-based
Protocol: Briefly, the liver was perfused in situ through the portal vein using a 16-18 G cannula with calcium-free HBSS (Gybco, UK) for S min followed by 0,1% Pronase E (Sigma) and subsequently 0.025% type IV collagenase (Sigma) in Dulbecco's modified Eagle's medium for 10-15 min each. The digested liver was excised, gently minced and incubated further with 0.04% pronase, 0,025% collagenase, 0,002% DNAse (Sigma) in Dulbecco's modified Eagle's medium, supplemented with 25 mM HEPES at 37° C. for 10-30 min with gentle agitation. After filtration through 100 μm nylon gauze, parenchymal cells were removed by low speed centrifugation. The HSC fraction was collected from the gradient interface after enrichment by a two-step centrifugation through a 11 and 13% gradient of Nycodenz (Sigma) at 1500 g for 15 min without braking, and plated at a density 0.5×10^6/cm^2 in DMEM supplemented with 10% FCS, penicillin and streptomycin. Medium was changed after 24 h, and further every 48 hours. Viability of the isolated cells was assessed by Trypan Blue exclusion and was routinely greater then 95-98%. Purity of HSC isolates was confirmed by their typical morphological appearance: lipid-droplets in the cytoplasm showing greenish autofluorescence at 390 nm excitation and star-like shape. Contamination with Kupffer cells was assessed by the ability to engulf 3 μm latex beads and was below 3-5% after isolation, and almost undetectable after the 1st passage. For experiments cells were used between the 1st and 3rd passage, if not stated otherwise.
as §2, §3

CTGF = test: Real-Time PCR of CTGF expression in CFSC-2G cells; format: cell-based, rat; conditions: PDGF-BB 10 ng/ml 24 h, inhibitor 10^−6-10^−8 M, dose-dependent, maximum of inhibition at 10^−6 M
Protocol: (§4) Real-Time PCR Total RNA was isolated from the cell lysates using the RNApure commercial kit (PeqLab, Erlangen, Germany) according to the manufacturer's recommendations. Template cDNA was obtained by reverse transcription of […] of total RNA.
(§5) Relative transcript levels were quantified by real time RT-PCR using the LightCycler system (Roche), using 1,5 μl of template cDNA dilution in a total reaction volume of 15 μl that included Taq DNA-Polymerase, dNTP-mix, reaction buffer, and 3.0 mM MgCl2 provided by the “LightCycler FastStart DNA Master Hybridization Probes Kit” (Roche Molecular Biochemicals, Mannheim, Germany) according to the manufactor's instructions. For every measured transcript a 1:2 to 1:32 dilution series of one sample was used as standard. Data were analyzed with the LightCycler software using the “proportional second derivative maximum” option. The housekeeping genes beta-2 microglobulin or GAPDH were amplified in a parallel reaction for normalization of the results. […]
as §1

[2] = test system: procollagen α1(I), TGFβ1, TGFβ2, MMP-3, MMP-13, MMP-2, TIMP-1; test: Real-Time PCR of other pro- and anti-fibrogenic molecules in HSC/MF; format: cell-based, rat; conditions: PDGF-BB 10 ng/ml 24 h; data not shown
Protocol: as §4, §5, §1

HSC/MF = test: BrdU incorporation (cell proliferation, de novo DNA synthesis); format: cell-based, rat
Protocol: Briefly, the liver was perfused in situ through the portal vein using a 16-18 G cannula with calcium-free HBSS (Gybco, UK) for S min followed by 0,1% Pronase E (Sigma) and subsequently 0.025% type IV collagenase (Sigma) in Dulbecco's modified Eagle's medium for 10-15 min each. The digested liver was excised, gently minced and incubated further with 0.04% pronase, 0,025% collagenase, 0,002% DNAse (Sigma) in Dulbecco's modified Eagle's medium, supplemented with 25 mM HEPES at 37° C. for 10-30 min with gentle agitation. After filtration through 100 μm nylon gauze, parenchymal cells were removed by low speed centrifugation. […] Viability of the isolated cells was assessed by Trypan Blue exclusion and was routinely greater then 95-98%. […] Contamination with Kupffer cells was assessed by the ability to engulf 3 μm latex beads and was below 3-5% after isolation, and almost undetectable after the 1st passage. […]
BrdU incorporation: To assess cell proliferation de novo DNA synthesis was determined as BrdU incorporation. […] During last […] of incubation cells were pulse-labeled with BrdU and its incorporation measured using an ELISA kit (Roche) and a micro-plate reader. […]

SMILES | reduction of total liver collagen [1] | PDGF-BB induced cell migration into the scratch area (CFSC-2G cells; inhibitor 10^-9-10^-6 M, dose-dependent) | PDGF-BB induced cell migration at 10^−6 M (CFSC-2G cells; inhibitor 10^−6 M) | inhibition of migration at reduced concentrations of FCS (primary rat HSC/MF; FCS 0,25%, data not shown) | cell migration stimulated by FCS (primary rat HSC/MF; HSC/MF, FCS-stimulated, inhibitor 10^−10-10^−6 M, 20 h) | PDGF-BB induced cell migration into the scratch area (primary rat HSC/MF; primary rat HSC/MF, PDGF-BB 10 ng/ml, inhibitor 10^-9-10^-6 M, 17-20 h, dose-dependent) | PDGF-BB induced cell migration at 10^−6 M (primary rat HSC/MF; primary rat HSC/MF, PDGF-BB 10 ng/ml, inhibitor 10^−6 M, 17-20 h) | CTGF expression (CTGF) | transcripts levels of other ECM molecules [2] | serum-stimulated cell proliferation (HSC/MF; 10% FCS, inhibitor 10^−6-10^−8 M) | PDGF-BB stimulated cell proliferation (HSC/MF; all cell types, PDGF-BB 10 ng/ml, inhibitor 10^−8-10^−6 M, 24 h)
O=C(O)CC(NC(=O)C(COCc1ccccc1)NC(=O)CCCCNc1ccccn1)c1cc(Cl)cc(Cl)c1 (centres unmarked) [EMD 409849, 3-{3-Benzyloxy-2-[5-(pyridin-2-ylamino)-pentanoylamino]-propanoylamino}-3-(3,5-dichloro-phenyl)-propionic acid] | 50-70% | – | – | – | – | – | – | – | – | – | –
CNc1cccc(CCOc2ccc3c(C(CC(=O)O)c4ccc5nsnc5c4)c[nH]c3c2)n1 (centres unmarked) [EMD 409915, 3-Benzo[1,2,5]thiadiazol-5-yl-3-{6-[2-(6-methylamino-pyridin-2-yl)-ethoxy]-1H-indol-3-yl}-propionic acid] | – | strongly inhibited | Complete abrogation | did not show any significant inhibition | no effect | strongly inhibited | Complete abrogation | downregulated | no change | absence of effect | did not have any effect
